# Data: US20170072005A1, “COMBINATIONS OF NMDAR MODULATING COMPOUNDS” (NORTHWESTERN UNIVERSITY, priority 2014, published 2017)
# Entries after “also recorded” stand apart in the source; their conditions may differ. Peptide text beside a SMILES is read from it.
# Assays:
# Assay type in all cases: in vivo
# [1] = test system: somatosensory cortex; assay: Attenuation in somatosensory cortex with GLYX-13 pre-treatment followed by ketamine (FIG. 4)
# [2] = test system: adult male C57BL/6 male mice; assay: Novel object recognition test (NOR), discrimination index
# Description: The discrimination index is calculated using the following formula: (time spent exploring novel object−time spent exploring familiar object)/(total time spent in exploring both the novel and familiar objects).
# Novel Object recognition Test (“NOR”) testing in mice was adapted from (Hashimoto K, Fujita Y, Shimizu E, Iyo M (2005). Phencyclidine-induced cognitive deficits in mice are improved by subsequent subchronic administration of clozapine, but not haloperidol. European journal of pharmacology 519(1-2): 114-117). See also, e.g., Rajagopal, et al., Current Pharmaceutical Design 2014, 20, 1. The NOR box is an open box made out of Plexiglas (52 cm L; 52 cm W; 31 cm H). The dimensions of the box we used for mice was identical to the one used for rats. The box was positioned approximately 30 cm above the floor. The walls of the box have white background, as opposed to the black background in the rat NOR studies. […] Three days prior to testing, mice were habituated to the empty NOR arena for an hour. The NOR test in mice is similar to that previously employed to study rat NOR except that the acquisition and retention trials were 10 min in duration, followed by an intertrial interval (ITI) of 24 hours during which the mice were returned to their home cages, whereas in rats, the acquisition and retention trials were three min in duration separated by a one min ITI (Horiguchi M, Meltzer HY (2012). The role of 5-HT1A receptors in phencyclidine (PCP)-induced novel object recognition (NOR) deficit in rats. Psychopharmacology 221(2): 205-215). We compared 3, 5, and 10 min times for acquisition and retention trial explorations and found 10 minutes to be optimal for reliable data collection. Both trials were recorded for blind scoring later on.
# All data are expressed as mean±S.E.M. Exploration data were analysed by a two-way analysis of variance (ANOVA). This detected the main effect of drug treatment, the main effect of task, and the interaction between drug treatment and object exploration. When a significant effect was found, further analysis by a post hoc Student's t-test was performed to compare the times spent exploring the novel and familiar object. The primary endpoint was the discrimination index (DI). The DI (novel-familiar/novel+familiar) data were analysed using one-way ANOVA followed by the Bonferroni test when a significant effect was detected by the ANOVA.
# [3] = test system: 2-3 month old male Sprague Dawley rats; assay: Stereotypy behaviour (circling and head weaving) in the open field
# Description: Vehicle treated animals received saline vehicle injections instead of GLYX-13 and ketamine injections. Animals were placed into the open field immediately after the final dose, and behaviour was analysed for 20 min. N=8-12.
smiles,measurement,setting,value
CC(O)C(N)C(=O)N1CCCC1C(=O)N1CCCC1C(=O)NC(C(N)=O)C(C)O (stereo not shown) [GLYX-13] (H-TPPT-NH2; configuration not given here),Attenuation in somatosensory cortex,[1]; pre-treatment with 3 mpk GLYX-13 followed by ketamine,significant attenuation
same,Attenuation in somatosensory cortex,[1]; pre-treatment with 30 mpk GLYX-13 followed by ketamine,significant attenuation
same,"Discrimination index (DI) in novel object recognition, reversal of acute ketamine-induced impairment","[2]; GLYX-13 3 mg/kg iv 30 min before ketamine 10 mg/kg sc, tested 20 min later, p<0.01 vs ketamine group",reverses acute ketamine (10 mg/kg sc) induced impairment in novel object recognition; also recorded: significant reversal in DI compared with ketamine group
same,"Discrimination index (DI) in novel object recognition, reversal of chronic ketamine-induced impairment","[2]; mice pre-treated with ketamine 30 mg/kg IP twice daily for 7 days, GLYX-13 1 mg/kg IV 1 hr before testing, p<0.001 vs ketamine group",reverses chronic ketamine-induced impairment in novel object recognition; also recorded: significant reversal in DI compared with ketamine group
same,"Discrimination index (DI) in novel object recognition, reversal of chronic PCP-induced impairment","[2]; mice pretreated with PCP 10 mg/kg IP twice daily for 7 days, GLYX-13 1 mg/kg IV 1 hr before testing, p<0.001 vs PCP group",reverses chronic phencyclidine-induced impairment in novel object recognition; also recorded: significant reversal in DI compared with PCP group
same,"Number of stereotypy behaviour (circling and head weaving), inhibition of ketamine-induced stereotypy","[3]; GLYX-13 3 mg/kg iv 30 min before ketamine 10 mg/kg iv, behaviour analysed for 20 min",inhibits ketamine (10 mg/kg iv) induced stereotypy
"c1ccc(C2(N3CCCCC3)CCCCC2)cc1 [PCP, phencyclidine, reference compound]","Discrimination index (DI) in novel object recognition, effect of chronic PCP","[2]; PCP 10 mg/kg IP twice daily for 7 days, then saline vehicle 1 hr before testing, p<0.001 vs vehicle group",significant decrease in DI compared with the vehicle group
"CNC1(c2ccccc2Cl)CCCCC1=O (stereo not shown) [ketamine, reference compound]","Discrimination index (DI) in novel object recognition, effect of acute ketamine","[2]; ketamine 10 mg/kg sc, tested 20 min later, p<0.0001 vs vehicle group",significant decrease in DI compared with the vehicle group
same,"Discrimination index (DI) in novel object recognition, effect of chronic ketamine","[2]; ketamine 30 mg/kg IP twice daily for 7 days, then saline vehicle 1 hr before testing, p<0.001 vs vehicle group",significant decrease in DI compared with the vehicle group
same,"Number of stereotypy behaviour (circling and head weaving), effect of ketamine","[3]; ketamine 10 mg/kg iv, open field, 20 min",induced stereotypy
